Values belong to the molecule of their own block, whether it stands above or below them.
What was measured:
[1] = system: model of systemic lupus erythematosis; settings: Nature Medicine, 2005, 11, 933-935; cited from earlier work
[2] = system: mouse model of rheumatoid arthritis; settings: Nature Medicine, 2005, 11, 936-943; cited from earlier work
PI3K (p110δ/p85α) (h) = PI3K (p110δ/p85α) (h) (Homo sapiens (Human), UniProt O00329); assay: PI3K (p110δ/p85α) (h) non-radioactive HTRF kinase assay; type: biochemical
Chain of PI3K (p110δ/p85α) (h) (O00329 whole entry): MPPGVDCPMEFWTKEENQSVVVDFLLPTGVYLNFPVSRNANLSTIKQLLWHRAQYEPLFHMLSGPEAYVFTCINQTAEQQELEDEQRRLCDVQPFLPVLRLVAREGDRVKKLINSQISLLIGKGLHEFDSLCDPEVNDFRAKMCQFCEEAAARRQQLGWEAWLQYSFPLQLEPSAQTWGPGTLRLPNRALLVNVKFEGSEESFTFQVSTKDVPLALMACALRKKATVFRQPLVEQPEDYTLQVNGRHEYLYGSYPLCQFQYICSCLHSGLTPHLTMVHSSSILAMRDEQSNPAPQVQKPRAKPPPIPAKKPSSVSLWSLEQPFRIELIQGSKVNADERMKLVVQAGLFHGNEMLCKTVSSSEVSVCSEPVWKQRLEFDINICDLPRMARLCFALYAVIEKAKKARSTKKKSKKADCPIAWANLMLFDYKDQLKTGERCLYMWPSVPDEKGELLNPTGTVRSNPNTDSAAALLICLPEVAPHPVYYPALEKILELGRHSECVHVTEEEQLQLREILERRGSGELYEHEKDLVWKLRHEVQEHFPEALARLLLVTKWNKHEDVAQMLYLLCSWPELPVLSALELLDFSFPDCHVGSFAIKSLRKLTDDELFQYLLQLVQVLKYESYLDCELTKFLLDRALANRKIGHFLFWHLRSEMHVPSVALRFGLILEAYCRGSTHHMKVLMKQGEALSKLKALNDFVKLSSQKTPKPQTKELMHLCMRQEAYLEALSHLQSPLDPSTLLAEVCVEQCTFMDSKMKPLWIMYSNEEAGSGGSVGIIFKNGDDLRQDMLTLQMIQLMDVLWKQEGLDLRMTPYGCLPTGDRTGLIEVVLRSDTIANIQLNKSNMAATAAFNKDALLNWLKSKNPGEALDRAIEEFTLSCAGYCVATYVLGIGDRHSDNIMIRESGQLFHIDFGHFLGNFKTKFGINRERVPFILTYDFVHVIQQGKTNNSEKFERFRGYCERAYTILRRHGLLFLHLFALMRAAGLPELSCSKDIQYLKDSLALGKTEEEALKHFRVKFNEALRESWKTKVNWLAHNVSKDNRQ
Chain of PI3K (p110δ/p85α) (h) (P27986 whole entry partner): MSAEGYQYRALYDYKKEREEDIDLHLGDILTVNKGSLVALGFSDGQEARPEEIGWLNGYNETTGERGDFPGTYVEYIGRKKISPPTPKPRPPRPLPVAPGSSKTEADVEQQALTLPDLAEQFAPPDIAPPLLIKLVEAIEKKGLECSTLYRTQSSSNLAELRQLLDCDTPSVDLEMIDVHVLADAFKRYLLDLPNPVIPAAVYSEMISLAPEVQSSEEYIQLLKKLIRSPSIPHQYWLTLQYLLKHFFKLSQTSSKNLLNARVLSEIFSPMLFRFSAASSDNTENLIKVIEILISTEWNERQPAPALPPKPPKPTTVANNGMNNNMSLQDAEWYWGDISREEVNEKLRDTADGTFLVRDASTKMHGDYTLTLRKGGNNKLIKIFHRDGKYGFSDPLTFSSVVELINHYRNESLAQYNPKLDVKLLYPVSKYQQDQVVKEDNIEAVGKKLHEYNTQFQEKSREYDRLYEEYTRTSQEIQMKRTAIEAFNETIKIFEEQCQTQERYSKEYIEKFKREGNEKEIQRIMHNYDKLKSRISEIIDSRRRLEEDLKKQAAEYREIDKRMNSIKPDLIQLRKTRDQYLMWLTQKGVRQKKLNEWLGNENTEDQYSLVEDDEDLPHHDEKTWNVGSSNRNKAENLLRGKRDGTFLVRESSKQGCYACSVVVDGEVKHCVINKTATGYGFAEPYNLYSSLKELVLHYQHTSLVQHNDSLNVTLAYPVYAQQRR

[3] = Pharmacokinetics after intravenous and oral administration in monkeys; type: in vivo; settings: Monkey
[4] = Pharmacokinetics after intravenous and oral administration in rats; type: in vivo, rat
[5] = Compound stability in rat liver microsomes; type: in vitro ADME; settings: pH 7.4
[6] = Pharmacokinetics after intravenous and oral administration in dogs; type: in vivo; settings: Dog
PI3K (p120γ) (h) = PI3K (p120γ) (h) (Homo sapiens (Human), UniProt P48736); assay: PI3K (p120γ) (h) non-radioactive HTRF kinase assay; type: biochemical
Chain of PI3K (p120γ) (h) (P48736 whole entry): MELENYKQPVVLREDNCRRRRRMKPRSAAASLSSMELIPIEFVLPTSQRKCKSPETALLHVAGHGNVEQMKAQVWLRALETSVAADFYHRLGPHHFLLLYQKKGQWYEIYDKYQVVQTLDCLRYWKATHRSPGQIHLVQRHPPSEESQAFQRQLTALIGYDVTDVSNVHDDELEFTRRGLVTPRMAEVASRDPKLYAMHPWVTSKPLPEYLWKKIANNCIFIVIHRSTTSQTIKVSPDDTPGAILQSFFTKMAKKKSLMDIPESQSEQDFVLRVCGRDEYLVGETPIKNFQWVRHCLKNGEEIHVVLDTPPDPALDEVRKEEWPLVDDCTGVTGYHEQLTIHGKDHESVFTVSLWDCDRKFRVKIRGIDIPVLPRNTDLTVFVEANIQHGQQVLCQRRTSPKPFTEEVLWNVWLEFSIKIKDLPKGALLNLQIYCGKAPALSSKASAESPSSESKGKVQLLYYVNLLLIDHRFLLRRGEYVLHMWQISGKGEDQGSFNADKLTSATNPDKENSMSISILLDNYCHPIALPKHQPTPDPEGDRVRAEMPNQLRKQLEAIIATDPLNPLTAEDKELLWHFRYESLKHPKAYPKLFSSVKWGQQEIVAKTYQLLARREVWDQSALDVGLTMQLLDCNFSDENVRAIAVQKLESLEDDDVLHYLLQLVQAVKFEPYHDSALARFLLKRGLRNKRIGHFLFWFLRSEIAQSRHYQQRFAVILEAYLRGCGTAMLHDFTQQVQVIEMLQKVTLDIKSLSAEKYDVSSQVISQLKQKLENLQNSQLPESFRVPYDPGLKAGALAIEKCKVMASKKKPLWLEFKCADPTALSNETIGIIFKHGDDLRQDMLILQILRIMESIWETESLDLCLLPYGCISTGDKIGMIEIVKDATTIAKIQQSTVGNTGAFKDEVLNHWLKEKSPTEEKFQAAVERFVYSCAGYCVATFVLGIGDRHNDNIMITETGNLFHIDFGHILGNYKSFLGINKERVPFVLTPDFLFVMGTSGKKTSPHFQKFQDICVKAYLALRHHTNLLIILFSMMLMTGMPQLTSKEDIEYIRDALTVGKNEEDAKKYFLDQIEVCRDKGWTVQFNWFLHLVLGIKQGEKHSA

PI3K (p110β/p85α) (h) = PI3K (p110β/p85α) (h) (Homo sapiens (Human), UniProt P42338); assay: PI3K (p110β/p85α) (h) non-radioactive HTRF kinase assay; type: biochemical
Chain of PI3K (p110β/p85α) (h) (P42338 whole entry): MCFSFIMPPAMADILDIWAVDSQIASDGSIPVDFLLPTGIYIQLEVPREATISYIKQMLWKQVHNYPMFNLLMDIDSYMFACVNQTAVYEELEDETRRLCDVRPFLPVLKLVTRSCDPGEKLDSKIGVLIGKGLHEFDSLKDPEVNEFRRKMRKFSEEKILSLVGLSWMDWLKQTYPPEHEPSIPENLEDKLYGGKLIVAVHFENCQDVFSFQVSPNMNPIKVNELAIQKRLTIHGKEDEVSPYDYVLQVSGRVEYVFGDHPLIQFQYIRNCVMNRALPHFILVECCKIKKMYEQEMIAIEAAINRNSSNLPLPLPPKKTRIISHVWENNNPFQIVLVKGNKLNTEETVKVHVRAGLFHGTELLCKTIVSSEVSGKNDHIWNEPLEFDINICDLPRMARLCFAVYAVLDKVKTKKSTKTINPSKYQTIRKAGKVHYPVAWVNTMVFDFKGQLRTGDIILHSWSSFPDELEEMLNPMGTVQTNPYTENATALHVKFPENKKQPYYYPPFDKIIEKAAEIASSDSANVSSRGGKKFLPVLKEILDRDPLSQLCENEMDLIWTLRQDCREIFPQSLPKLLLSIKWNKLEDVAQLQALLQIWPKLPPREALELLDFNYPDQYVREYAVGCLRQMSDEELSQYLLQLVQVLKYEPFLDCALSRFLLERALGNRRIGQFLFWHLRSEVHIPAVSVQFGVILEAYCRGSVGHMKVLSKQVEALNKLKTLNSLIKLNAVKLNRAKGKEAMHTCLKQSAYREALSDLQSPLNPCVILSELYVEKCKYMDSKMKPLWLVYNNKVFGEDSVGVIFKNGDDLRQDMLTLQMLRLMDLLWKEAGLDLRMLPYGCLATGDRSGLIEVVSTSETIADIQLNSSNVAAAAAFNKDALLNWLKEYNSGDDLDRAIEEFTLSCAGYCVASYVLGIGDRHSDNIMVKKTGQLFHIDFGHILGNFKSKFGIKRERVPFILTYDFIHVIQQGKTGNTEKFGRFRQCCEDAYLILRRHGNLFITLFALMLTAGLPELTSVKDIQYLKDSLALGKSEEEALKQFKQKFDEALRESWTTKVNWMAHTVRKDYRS
Chain of PI3K (p110β/p85α) (h) (P27986 whole entry partner): as the sequence (P27986 whole entry partner) above

PI3K (p110α/p85α) (h) = PI3K (p110α/p85α) (h) (Homo sapiens (Human), UniProt P42336); assay: PI3K (p110α/p85α) (h) non-radioactive HTRF kinase assay; type: biochemical
Chain of PI3K (p110α/p85α) (h) (P42336 whole entry): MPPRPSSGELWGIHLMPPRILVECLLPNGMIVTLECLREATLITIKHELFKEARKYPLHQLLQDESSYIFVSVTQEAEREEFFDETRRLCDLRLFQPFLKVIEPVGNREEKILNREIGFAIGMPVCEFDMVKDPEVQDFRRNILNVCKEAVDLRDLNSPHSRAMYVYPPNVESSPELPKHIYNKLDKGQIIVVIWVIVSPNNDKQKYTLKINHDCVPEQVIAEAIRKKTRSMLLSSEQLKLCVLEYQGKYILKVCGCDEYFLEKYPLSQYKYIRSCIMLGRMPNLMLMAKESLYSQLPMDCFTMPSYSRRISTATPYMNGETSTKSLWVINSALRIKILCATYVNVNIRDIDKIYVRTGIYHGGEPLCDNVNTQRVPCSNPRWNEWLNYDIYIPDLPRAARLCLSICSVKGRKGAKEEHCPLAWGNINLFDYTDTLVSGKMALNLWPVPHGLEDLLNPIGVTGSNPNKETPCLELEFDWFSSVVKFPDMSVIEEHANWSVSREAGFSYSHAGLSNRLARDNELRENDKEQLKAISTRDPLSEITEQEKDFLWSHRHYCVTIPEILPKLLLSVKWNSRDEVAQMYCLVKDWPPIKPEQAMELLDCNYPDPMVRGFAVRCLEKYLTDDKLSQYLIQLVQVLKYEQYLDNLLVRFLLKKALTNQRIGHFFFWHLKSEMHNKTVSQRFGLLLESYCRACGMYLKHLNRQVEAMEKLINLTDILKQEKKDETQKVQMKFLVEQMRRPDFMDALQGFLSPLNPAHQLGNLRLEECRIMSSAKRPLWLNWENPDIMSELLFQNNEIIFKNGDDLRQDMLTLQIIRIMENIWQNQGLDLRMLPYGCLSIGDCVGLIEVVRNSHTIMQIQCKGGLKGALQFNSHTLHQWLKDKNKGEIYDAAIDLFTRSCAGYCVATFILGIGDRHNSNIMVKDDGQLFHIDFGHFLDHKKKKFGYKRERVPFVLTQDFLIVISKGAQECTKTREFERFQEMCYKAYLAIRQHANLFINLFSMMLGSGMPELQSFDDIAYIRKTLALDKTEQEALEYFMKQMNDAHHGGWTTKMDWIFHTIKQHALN
Chain of PI3K (p110α/p85α) (h) (P27986 whole entry partner): as the sequence (P27986 whole entry partner) above

[7] = Compound stability in human liver microsomes; type: in vitro ADME
[8] = Pharmacokinetics after intravenous and oral administration in mice; type: in vivo; settings: Mouse
PI3Kδ = PI3Kδ (Homo sapiens, UniProt O00329); settings: Cell, 2006, 125, 733-747; cited from earlier work
murine model of asthma = settings: ovalbumin-induced airway inflammation; FASEB, 2006, 20: 455-465; cited from earlier work
[9] = plasma, iv dose 1 mg/kg, oral dose generally 10 mg/kg
[10] = plasma, iv dosing, dose 1 mg/kg
[11] = plasma, iv dosing, dose 1 mg/kg, read-out: Vss
[12] = rat, plasma, iv dosing, dose 1 mg/kg

SMILES: O=C1NC(=O)/C(=C\c2ccc3nccnc3c2)S1 [AS 605240]
onset of disease in a model of systemic lupus erythematosis [1]: delay onset of disease
efficacy in a mouse model of rheumatoid arthritis [2]: efficacious

IC50 (PI3K (p110δ/p85α) (h)): 8 nM
CL/F ([3]; iv dosing, dose 1 mg/kg): 0.696 L/h/kg
bioavailability [3, 9]: 55.4%
AUC(0-t) [3, 10]: 1520 ng·h/mL
half-life [3, 10]: 185 min
Vd [3, 11]: 1.92 L/kg
clearance (CL) ([4]; iv dosing, dose 1 mg/kg): 1.29 L/h/kg
bioavailability ([4]; rat, plasma, iv dose 1 mg/kg, oral dose generally 5 or 10 mg/kg): 76.1%
AUC(0-t) [4, 12]: 726 ng·h/mL
half-life [4, 12]: 359 min
Vd ([4]; rat, plasma, iv dosing, dose 1 mg/kg, read-out: Vss): 10.7 L/kg
half-life at 5 μM ([5]; rat liver microsomes 0.5 mg protein/mL, compound 5 μM, NADPH 1.0 mM, 37° C.): 81.1 min
CLint scaled at 5 μM ([5]; rat liver microsomes, in vivo CLint extrapolated): 30.6 mL/min/kg
CL/F ([6]; iv dosing, dose 1 mg/kg): 0.58 L/h/kg
bioavailability [6, 9]: 34.1%
AUC(0-t) [6, 10]: 1580 ng·h/mL
half-life [6, 10]: 684 min
Vd [6, 11]: 6.01 L/kg
IC50 (PI3K (p120γ) (h)): 258 nM
IC50 (PI3K (p110β/p85α) (h)): 113 nM
IC50 (PI3K (p110α/p85α) (h)): 1480 nM
half-life at 5 μM ([7]; human liver microsomes 0.5 mg protein/mL, compound 5 μM, NADPH 1.0 mM, 37° C.): 45.5 min
CLint scaled at 5 μM ([7]; human liver microsomes, in vivo CLint extrapolated): 38.2 mL/min/kg
CL/F ([8]; iv dosing, dose 1 mg/kg): 15.3 L/h/kg
bioavailability ([8]; plasma, iv dose 1 mg/kg, oral dose generally 5 or 10 mg/kg): 11%
AUC(0-t) [8, 10]: 651 ng·h/mL
half-life [8, 10]: 88.8 min
Vd [8, 11]: 3.8 L/kg
SMILES: CC[C@H](Nc1ncnc(N)c1-c1nc(C)no1)c1nc2cccc(Cl)c2c(=O)n1C1CC1 [Ex. 4, (S)-2-(1-((6-amino-5-(3-methyl-1,2,4-oxadiazol-5-yl)pyrimidin-4-yl)amino)-propyl)-5-chloro-3-cyclopropylquinazolin-4(3H)-one]

SMILES: Cc1ccccc1-n1c(Cn2cnc3c(N)ncnc32)nc2cccc(C)c2c1=O [IC87114]
inhibits PI3Kδ (PI3Kδ): high nanomolar range (triple digit)
inflammation and disease in a murine model of asthma (murine model of asthma): significantly ameliorate inflammation and disease

Reference: patent US9670194B2 (Calitor Sciences, LLC, priority 2013, dated 2017)
